We go through 20 compounds from patent US9955691B2, “Macrocyclic picolinamides as fungicides” (DOW AGROSCIENCES LLC, priority 2014, dated 2018).

Where two headings read alike, the source gives them in different places.

In assay [1] the test system is Mycosphaerella graminicola; Anamorph: Septoria tritici. Kind of assay: Fungicidal activity: Leaf Blotch of Wheat (SEPTTR). It counts as in vivo. Conditions: Zymoseptoria tritici, wheat leaf blotch; for pest or weed control at 100 µg/mL: High Volume (100 ppm); for pest or weed control at 121.5 g/ha: Low Volume (121.5 g/H). Here is the method:
Evaluation of Fungicidal Activity: Leaf Blotch of Wheat (Mycosphaerella graminicola; Anamorph: Septoria tritici; Bayer Code […]) Technical grades of materials were dissolved in acetone, which were then mixed with nine volumes of water containing 110 ppm Triton X-100. The fungicide solutions were applied onto wheat seedlings using an automated booth sprayer to run-off. All sprayed plants were allowed to air dry prior to further handling. All fungicides were evaluated using the aforementioned method for their activity vs. all target diseases, unless stated otherwise. Wheat leaf blotch and brown rust activity were also evaluated using track spray applications, in which case the fungicides were formulated as EC formulations, containing 0.1% Trycol 5941 in the spray solutions. Wheat plants (variety Yuma) were grown from seed in a greenhouse in 50% mineral soil/50% soil-less Metro mix until the first leaf was fully emerged, with 7-10 seedlings per pot. These plants were inoculated with an aqueous spore suspension of Septoria tritici either prior to or after fungicide treatments. After inoculation the plants were kept in 100% relative humidity (one day in a dark dew chamber followed by two to three days in a lighted dew chamber at 20° C.) to permit spores to germinate and infect the leaf. The plants were then transferred to a greenhouse set at 20° C. for disease to develop. When disease symptoms were fully expressed on the 1st leaves of untreated plants, infection levels were assessed on a scale of 0 to 100 percent disease severity. Percent disease control was calculated using the ratio of disease severity on treated plants relative to untreated plants.

Assay [2] concerns Puccinia triticina. Kind of assay: Fungicidal activity: Wheat Brown Rust (PUCCRT). Format: in vivo. As to conditions: for pest or weed control at 100 µg/mL: High Volume (100 ppm); for pest or weed control at 121.5 g/ha: Low Volume (121.5 g/H). On the procedure: Technical grades of materials were dissolved in acetone, which were then mixed with nine volumes of water containing 110 ppm Triton X-100. The fungicide solutions were applied onto wheat seedlings using an automated booth sprayer to run-off. All sprayed plants were allowed to air dry prior to further handling. All fungicides were evaluated using the aforementioned method for their activity vs. all target diseases, unless stated otherwise. Wheat leaf blotch and brown rust activity were also evaluated using track spray applications, in which case the fungicides were formulated as EC formulations, containing 0.1% Trycol 5941 in the spray solutions. Wheat plants (variety Yuma) were grown from seed in a greenhouse in 50% mineral soil/50% soil-less Metro mix until the first leaf was fully emerged, with 7-10 seedlings per pot. These plants were inoculated with an aqueous spore suspension of Septoria tritici either prior to or after fungicide treatments. After inoculation the plants were kept in 100% relative humidity (one day in a dark dew chamber followed by two to three days in a lighted dew chamber at 20° C.) to permit spores to germinate and infect the leaf. The plants were then transferred to a greenhouse set at 20° C. for disease to develop. When disease symptoms were fully expressed on the 1st leaves of untreated plants, infection levels were assessed on a scale of 0 to 100 percent disease severity. Percent disease control was calculated using the ratio of disease severity on treated plants relative to untreated plants. Evaluation of Fungicidal Activity: Wheat Brown Rust (Puccinia triticina; Synonym: Puccinia recondite f. Sp. Tritici; Bayer Code PUCCRT) Wheat plants (variety Yuma) were grown from seed in a greenhouse in 50% mineral soil/50% soil-less Metro mix until the first leaf was fully emerged, with 7-10 seedlings per pot. These plants were inoculated with an aqueous spore suspension of Puccinia triticina either prior to or after fungicide treatments. After inoculation the plants were kept in a dark dew room at 22° C. with 100% relative humidity overnight to permit spores to germinate and infect the leaf. The plants were then transferred to a greenhouse set at 24° C. for disease to develop. Fungicide formulation, application and disease assessment followed the procedures as described in the Example A.

Setting [3] is: 24 h, 1 Day Protectant, read-out: SEPTTR 1 DP disease control.
Where [4] appears, read: 72 h, 3 Day Curative, read-out: SEPTTR 3 DC disease control.
The mark [5] stands for this setting: 24 h, 1 Day Protectant, read-out: PUCCRT 1 DP disease control.
Setting [6] is: 72 h, 3 Day Curative, read-out: PUCCRT 3 DC disease control.

With `COc1ccnc(C(=O)N[C@H]2COC[C@H](Cc3ccccc3)[C@@H](Cc3ccccc3)[C@@H](C)OC2=O)c1OCOC(C)=O` [compound 2], the pest or weed control at 100 µg/mL in assay [1] (setting [3]), in assay [1] (setting [4]), in assay [2] (setting [5]) and in assay [2] (setting [6]) was less than 70% in each case.
On to `COc1ccnc(C(=O)N[C@H]2COC[C@@H]3CCCC[C@H]3[C@@H](C)OC2=O)c1OCOC(C)=O` [compound 5], for which the pest or weed control at 100 µg/mL in assay [1] (setting [3]), in assay [1] (setting [4]) and in assay [2] (setting [5]) was less than 70% throughout.
Take `COc1ccnc(C(=O)N[C@H]2COC[C@@H]3CCCC[C@H]3[C@H](C)OC2=O)c1OCOC(C)=O` [compound 6]: the pest or weed control at 100 µg/mL is less than 70% in assay [1] (setting [3]), less than 70% in assay [1] (setting [4]) and greater than 70% in assay [2] (setting [5]).
Consider `COc1ccnc(C(=O)N[C@H]2COC[C@H](CCC(C)C)[C@@H](CCC(C)C)[C@H](C)OC2=O)c1OCOC(C)=O` [compound 8], for which the pest or weed control at 100 µg/mL in assay [1] (setting [3]), in assay [1] (setting [4]), in assay [2] (setting [5]) and in assay [2] (setting [6]) was greater than 70% throughout.
With `COc1ccnc(C(=O)N[C@H]2COC[C@H](Cc3ccccc3)[C@@H](COCC(C)C)[C@H](C)OC2=O)c1OCOC(C)=O` [compound 12], the pest or weed control at 100 µg/mL in assay [1] (setting [3]), in assay [1] (setting [4]), in assay [2] (setting [5]) and in assay [2] (setting [6]) was greater than 70% each time. For the same compound, the pest or weed control at 121.5 g/ha in assay [1] (setting [3]) was greater than 70%; in assay [1] (setting [4]) it was greater than 70%; in assay [2] (setting [5]) it was greater than 70%; in assay [2] (setting [6]), less than 70%.
As for `CCCC[C@@H]1[C@@H](Cc2ccccc2)COC[C@H](NC(=O)c2nccc(OC)c2OCOC(C)=O)C(=O)O[C@H]1C` [compound 14], the pest or weed control at 100 µg/mL in assay [1] (setting [3]), in assay [1] (setting [4]), in assay [2] (setting [5]) and in assay [2] (setting [6]) was less than 70% throughout.
For `CCCC[C@@H]1[C@@H](Cc2ccccc2)COC[C@H](NC(=O)c2nccc(OC)c2OC(C)=O)C(=O)O[C@H]1C` [compound 15], the pest or weed control at 100 µg/mL in assay [1] (setting [3]), in assay [1] (setting [4]), in assay [2] (setting [5]) and in assay [2] (setting [6]) was greater than 70% each time. Also, the pest or weed control at 121.5 g/ha in assay [1] (setting [3]), in assay [1] (setting [4]), in assay [2] (setting [5]) and in assay [2] (setting [6]) was greater than 70% in each case.
With `COc1ccnc(C(=O)N[C@H]2COC[C@H](Cc3ccccc3)[C@@H](CC(C)C)[C@H](C)OC2=O)c1OC(C)=O` [compound 18], the pest or weed control at 121.5 g/ha in assay [1] (setting [3]) was greater than 70%; in assay [1] (setting [4]), greater than 70%; in assay [2] (setting [5]), greater than 70%; in assay [2] (setting [6]) it was less than 70%.
As for `COc1ccnc(C(=O)N[C@H]2COC[C@H](Cc3ccccc3)[C@@H](CC(C)C)[C@H](C)OC2=O)c1OCOC(C)=O` [compound 19], the pest or weed control at 121.5 g/ha in assay [1] (setting [3]), in assay [1] (setting [4]), in assay [2] (setting [5]) and in assay [2] (setting [6]) was greater than 70% in each case.
As to `COc1ccnc(C(=O)N[C@H]2COC[C@H](Cc3ccccc3)[C@@H](CC(C)C)[C@H](C)OC2=O)c1OCOC(=O)C(C)C` [compound 20], the pest or weed control at 121.5 g/ha in assay [1] (setting [3]), in assay [1] (setting [4]), in assay [2] (setting [5]) and in assay [2] (setting [6]) was greater than 70% throughout.
On to `CCOCC(=O)OCOc1c(OC)ccnc1C(=O)N[C@H]1COC[C@H](Cc2ccccc2)[C@@H](CC(C)C)[C@H](C)OC1=O` [compound 21], for which the pest or weed control at 121.5 g/ha in assay [1] (setting [3]), in assay [1] (setting [4]), in assay [2] (setting [5]) and in assay [2] (setting [6]) was greater than 70% throughout.
`CCC[C@H]1COC[C@H](NC(=O)c2nccc(OC)c2OC(C)=O)C(=O)O[C@@H](C)[C@@H]1Cc1ccccc1` [compound 22]: the pest or weed control at 121.5 g/ha in assay [1] (setting [3]), in assay [1] (setting [4]), in assay [2] (setting [5]) and in assay [2] (setting [6]) was greater than 70% in each case.
Take `CCC[C@H]1COC[C@H](NC(=O)c2nccc(OC)c2OCOC(C)=O)C(=O)O[C@@H](C)[C@@H]1Cc1ccccc1` [compound 23]: the pest or weed control at 121.5 g/ha in assay [1] (setting [3]), in assay [1] (setting [4]), in assay [2] (setting [5]) and in assay [2] (setting [6]) was greater than 70% each time.
On to `CCC[C@H]1COC[C@H](NC(=O)c2nccc(OC)c2OCOC(=O)C(C)C)C(=O)O[C@@H](C)[C@@H]1Cc1ccccc1` [compound 24], for which the pest or weed control at 121.5 g/ha in assay [1] (setting [3]), in assay [1] (setting [4]), in assay [2] (setting [5]) and in assay [2] (setting [6]) was greater than 70% in each case.
Regarding `CCC[C@H]1COC[C@H](NC(=O)c2nccc(OC)c2OCOC(=O)COCC)C(=O)O[C@@H](C)[C@@H]1Cc1ccccc1` [compound 25], the pest or weed control at 121.5 g/ha in assay [1] (setting [3]), in assay [1] (setting [4]), in assay [2] (setting [5]) and in assay [2] (setting [6]) was greater than 70% in each case.
With `COc1ccnc(C(=O)N[C@H]2COC[C@H](CC3CCCC3)[C@@H](CC3CCCC3)[C@H](C)OC2=O)c1OCOC(C)=O` [compound 26], the pest or weed control at 121.5 g/ha in assay [1] (setting [3]), in assay [1] (setting [4]), in assay [2] (setting [5]) and in assay [2] (setting [6]) was greater than 70% throughout.
On to `CCOCC(=O)OCOc1c(OC)ccnc1C(=O)N[C@H]1COC[C@H](Cc2ccccc2)[C@@H](Cc2ccccc2)[C@H](C)OC1=O` [compound 28], for which the pest or weed control at 121.5 g/ha in assay [1] (setting [3]), in assay [1] (setting [4]), in assay [2] (setting [5]) and in assay [2] (setting [6]) was greater than 70% each time.
In the case of `COc1ccnc(C(=O)N[C@H]2COC[C@H](Cc3ccccc3)[C@@H](CCc3ccccc3)[C@H](C)OC2=O)c1OC(C)=O` [compound 29], the pest or weed control at 121.5 g/ha in assay [1] (setting [3]), in assay [1] (setting [4]), in assay [2] (setting [5]) and in assay [2] (setting [6]) was greater than 70% each time.
With `COc1ccnc(C(=O)N[C@H]2COC[C@H](Cc3ccccc3)[C@@H](CCc3ccccc3)[C@H](C)OC2=O)c1OCOC(C)=O` [compound 30], the pest or weed control at 121.5 g/ha in assay [1] (setting [3]), in assay [1] (setting [4]), in assay [2] (setting [5]) and in assay [2] (setting [6]) was greater than 70% each time.
Turning to `COc1ccnc(C(=O)N[C@H]2COC[C@H](Cc3ccccc3)[C@@H](CCc3ccccc3)[C@H](C)OC2=O)c1OCOC(=O)C(C)C` [compound 31], the pest or weed control at 121.5 g/ha in assay [1] (setting [3]), in assay [1] (setting [4]), in assay [2] (setting [5]) and in assay [2] (setting [6]) was greater than 70% throughout.
